Assay results from patent US20240226178A1, “ELECTROPHYSIOLOGICAL MODIFICATION TO SUPPRESS ARRHYTHMIAS” (UNIVERSITY OF WASHINGTON, priority 2021, published 2024).

Tests used:
RUES2 hESC-CMs wild-type = assay: MEA dose-response of compounds on spontaneous electrical activity of hESC-CMs; format: cell-based, human; details: for beating frequency / beat rate (effect in words) / spike amplitude (effect in words): RUES2 hESC-CMs wild-type on MEA, increasing doses vs DMSO control
Text: FIGS. 6A-6F. […] Data shown as mean±SEM of 2 independent experiments each with 6 technical replicates (wells), and normalized on experimental baseline and expressed as % vs. DMSO control. Lines represents nonlinear regression of normalized response Y=100/(1+10^((LogIC50-X)*HillSlope))).
FIGS. 13A-13C. […] (FIGS. 13A, 13B, 13C) Dose-response curve of Mibefradil (ICaT, FIG. 13A), Zacopride (IK1 agonist, FIG. 13B) and Verapamil (L-type calcium channel inhibitor, FIG. 13C) on MEA system. Data shown as mean±SEM of 2 independent experiments normalized on baseline and expressed as % vs DMSO control (N=2, n=6). Lines represent nonlinear regression of normalized response Y=100/(1+10^((LogIC50-X)*HillSlope))).
The role of ion channels in automaticity has been so far largely studied in the context of the adult mouse sinoatrial node. Whether the same mechanisms also apply to hPSC-CMs and/or fetal human cardiomyocytes remains controversial. First, a variety of pharmacological compounds were tested on hPSC-CMs derived from the RUES2 human embryonic stem cells (hESCs), which were differentiated by sequential small molecule-based activation and inhibition of the WNT pathway. The inventors performed electrophysiological analyses using a multielectrode array (MEA) to record the effects of the different compounds on hPSC-CMs spontaneous electrical activity. […] Zacopride, reported to have agonistic effect on the Kir2.1 channel (encoded by KCNJ2) that mediates IKI currents, was also tested.
CytoView™ MEA 48 were coated with 0.17 mg/mL of Matrigel for 1 hour at 37° C. […] For spontaneous beat recording, spontaneous electrical activity was recorded for 5 min using Maestro™ Pro system at 37° C. with 5% CO2. Considering the irregular beat rate of the cell lines bearing KCNJ2 KI, the data are shown as total number of beats recorded per experiment, divided by the total time of recording (average beats/min). For pharmacological studies, the different compounds were diluted in DMSO and incubated directly on MEA plates for 5 min at 37° C. Effects on spontaneous beat rate was determined by recording for 15 min after drug incubation. Non-linear regression curve calculated as Y=100/(1+10^((LogIC50-X)*HillSlope))). […] Quantification of beat rate, spike amplitude and beat period irregularity was performed using Axis Navigator (beat detector threshold: 30-100 μV; Minimum beat period: 200-500 ms; Maximum beat period: 30s).

EA in pigs = details: after hPSC-CM transplantation, reference [17]; cited from earlier work

| SMILES | beating frequency / beat rate (effect in words) (RUES2 hESC-CMs wild-type) | spike amplitude (effect in words) (RUES2 hESC-CMs wild-type) | further results |
| --- | --- | --- | --- |
| COc1cc2c(cc1OC)CC(=O)N(CCCN(C)C[C@H]1Cc3cc(OC)c(OC)cc31)CC2 [Ivabradine] | potently reduced | did not alter | spontaneous AP firing (RUES2 hESC-CMs wild-type; very high doses of ivabradine (100 μM)): did not prevent; effect on EA in pigs (EA in pigs): reduces heart rate but does not prevent EA |
| N=C(N)SCCc1ccc(OCc2ccc([N+](=O)[O-])cc2)cc1 [KB-R3702] | dose-dependent reduction | dose-dependent reduction |  |
| CC(C)(C)CCN1C[C@@H]2C(CNC(=O)c3cc(Cl)cc(Cl)c3)[C@@H]2C1 (stereo partly shown) [ML-218] | no effect on beating frequency until spike amplitudes were undetectable |  | LogIC50 (RUES2 hESC-CMs wild-type; MEA dose-response, nonlinear regression of normalized response, log value, concentration unit not given): −4.8±0.1424; doses at which spike amplitude decreased (RUES2 hESC-CMs wild-type; MEA, hESC-CMs): above 1 μM |
| COCC(=O)O[C@]1(CCN(C)CCCc2nc3ccccc3[nH]2)CCc2cc(F)ccc2[C@@H]1C(C)C [Mibefradil] |  |  | IC50 (RUES2 hESC-CMs wild-type; Homo sapiens, MEA dose-response, nonlinear regression of normalized response, log value, concentration unit inferred): 20 nM |
| CCOc1ccc(Oc2ccc(OCc3cc(F)ccc3F)cc2)c(N)c1 [SEA0400] | dose-dependent reduction | dose-dependent reduction |  |
| COc1ccc(CCN(C)CCCC(C#N)(c2ccc(OC)c(OC)c2)C(C)C)cc1OC (stereo not shown) [Verapamil] | progressively decrease | progressively decrease |  |
| COc1cc(N)c(Cl)cc1C(=O)NC1CN2CCC1CC2 (stereo not shown) [Zacopride] | did not show measurable effects | did not show measurable effects |  |
